Data published in US10155021B2, “Antimicrobial 4-oxoquinolizines” (Emergent Product Development Gaithersburg Inc., priority 2011, dated 2018).
Converted amounts (≈) assume the structure as drawn. Like-named read-outs stand apart in the source and are kept apart here.

What was measured:
[1] = test system: A. baumannii J2; experiment: Preliminary MBC without and with sub-inhibitory polymyxin B (Example 4); assay type: cell-based, Acinetobacter baumannii; settings: Acinetobacter baumannii, J2, A. baumannii J2, without polymyxin B, preliminary MBC, read-out: MBC without PB
[2] = test system: P. aeruginosa 1388-3-02; experiment: MIC, panel of quinolone-resistant strains (CLSI); assay type: cell-based; settings: Pseudomonas aeruginosa, 1388302; CIP R, POL R
[3] = test system: Acinetobacter spp. H064200250; experiment: MIC determination for Acinetobacter strains (Example 3); assay type: cell-based, Acinetobacter sp.; settings: LEV R, CIP R, MRP R, IMP I
[4] = test system: Klebsiella ssp KPC-3; experiment: MIC, panel of quinolone-resistant strains (CLSI); assay type: cell-based, Klebsiella spp; settings: KPC3, CIP R, ESBL
[5] = test system: A. baumannii A489; experiment: MIC without and with sub-inhibitory polymyxin B (Example 4); assay type: cell-based, Acinetobacter baumannii; settings: Acinetobacter baumannii, A489, A. baumannii A489, without polymyxin B, read-out: MIC without PB
[6] = test system: A. baumannii A329; experiment: MIC determination for Acinetobacter strains (Example 3); assay type: cell-based; settings: LEV R, CIP R, MRP R, IMP R, AMK R, TET R
[7] = test system: A. baumannii A329; experiment: MIC without and with sub-inhibitory polymyxin B (Example 4); assay type: cell-based, Acinetobacter baumannii; settings: Acinetobacter baumannii, A329, A. baumannii A329, without polymyxin B, read-out: MIC without PB
[8] = test system: Acinetobacter sp. (H064200250); experiment: Preliminary MBC without and with sub-inhibitory polymyxin B (Example 4); assay type: cell-based; settings: Acinetobacter, without polymyxin B, preliminary MBC, read-out: MBC without PB
Procedure, shortened: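 Read-out: the minimum concentration at which colonies were reduced by ca. 90% relative to positive control, usually seen as isolated colonies or a clear plate. Plates had been kept 18-20 hours at 37° C beforehand.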

[9] = test system: Pseudomonas ssp PER-1; experiment: MIC, panel of quinolone-resistant strains (CLSI); assay type: cell-based, Pseudomonas spp; settings: PER1, CIP R, ESBL
[10] = test system: A. baumannii A489; experiment: Preliminary MBC without and with sub-inhibitory polymyxin B (Example 4); assay type: cell-based, Acinetobacter baumannii; settings: Acinetobacter baumannii, A489, A. baumannii A489, without polymyxin B, read-out: MBC without PB
[11] = test system: Acinetobacter sp. (H064200250); experiment: MIC without and with sub-inhibitory polymyxin B (Example 4); assay type: cell-based; settings: Acinetobacter, without polymyxin B, read-out: MIC without PB
[12] = test system: resistant strains of A. baumannii and one strain of Acinetobacter sp.; experiment: MIC without and with sub-inhibitory polymyxin B, whole panel / MIC ranges (Example 4; also strains not listed separately); assay type: cell-based; settings: for MIC: Acinetobacter baumannii
[13] = test system: E. coli 2906; experiment: MIC, panel of quinolone-resistant strains (CLSI); assay type: cell-based; settings: Escherichia coli, CIP R
[14] = test system: P. aeruginosa 143-3-03; experiment: MIC, panel of quinolone-resistant strains (CLSI); assay type: cell-based; settings: Pseudomonas aeruginosa, 143303; CIP I, POL R
[15] = test system: A. baumannii A329; experiment: Preliminary MBC without and with sub-inhibitory polymyxin B (Example 4); assay type: cell-based, Acinetobacter baumannii; settings: Acinetobacter baumannii, A329, A. baumannii A329, without polymyxin B, read-out: MBC without PB
[16] = test system: A. baumannii ATCC 19606; experiment: MIC without and with sub-inhibitory polymyxin B (Example 4); assay type: cell-based, Acinetobacter baumannii; settings: Acinetobacter baumannii
[17] = test system: A. baumannii A390; experiment: Preliminary MBC without and with sub-inhibitory polymyxin B (Example 4); assay type: cell-based, Acinetobacter baumannii; settings: Acinetobacter baumannii, A390, A. baumannii A390, without polymyxin B, preliminary MBC, read-out: MBC without PB
[18] = test system: A. baumannii A473; experiment: as above; assay type: cell-based, Acinetobacter baumannii; settings: Acinetobacter baumannii, A473, A. baumannii A473, without polymyxin B, read-out: MBC without PB
[19] = test system: A. baumannii A401; experiment: as above; assay type: cell-based, Acinetobacter baumannii; settings: Acinetobacter baumannii, A401, A baumannii A 401, without polymyxin B, preliminary MBC, read-out: MBC without PB
[20] = test system: A. baumannii A473; experiment: MIC without and with sub-inhibitory polymyxin B (Example 4); assay type: cell-based, Acinetobacter baumannii; settings: Acinetobacter baumannii, A473, A. baumannii A473, without polymyxin B, read-out: MIC without PB
[21] = test system: A. baumannii A472; experiment: Preliminary MBC without and with sub-inhibitory polymyxin B (Example 4); assay type: cell-based, Acinetobacter baumannii; settings: Acinetobacter baumannii, A472, A. baumannii A472, without polymyxin B, 1st experiment, read-out: MBC without PB
[22] = test system: A. baumannii A472; experiment: MIC without and with sub-inhibitory polymyxin B (Example 4); assay type: cell-based, Acinetobacter baumannii; settings: Acinetobacter baumannii, A472, A. baumannii A472, without polymyxin B, read-out: MIC without PB
[23] = test system: A. baumannii A401; experiment: as above; assay type: cell-based, Acinetobacter baumannii; settings: for MIC: Acinetobacter baumannii, A401, A baumannii A 401, without polymyxin B, read-out: MIC without PB
[24] = test system: A. baumannii A472; experiment: MIC determination for Acinetobacter strains (Example 3); assay type: cell-based; settings: LEV R, CIP R, MRP I, IMP I, AMK R, TET R
[25] = Acinetobacter spp. H064200250 (OXA51), 2nd experiment
[26] = Acinetobacter spp. H064200250, 1st experiment
[27] = Acinetobacter spp. H064200250 (OXA51), 2nd experiment, visual reading
[28] = read-out: MIC range without PB 01-10-2008 n = 8, without polymyxin B, 1st experiment, 8 strains
[29] = without polymyxin B, 2nd experiment, 11 strains, read-out: MIC range without PB 14-10-2008 n = 11
[30] = ATCC19606, A. baumannii ATCC 19606, without polymyxin B, 1st experiment, read-out: MIC without PB
[31] = ATCC19606, A. baumannii ATCC 19606, without polymyxin B, 2nd experiment, visual reading, read-out: MIC without PB

## C[C@H]1COc2c(N3CCN(C)CC3)c(F)cc3c(=O)c(C(=O)O)cn1c23 [Levofloxacin, reference compound]
[1]; 2nd experiment
  MBC: 32 µg/mL (≈ 88.6 µM)
[1]; 1st experiment
  MBC: 32 µg/mL (≈ 88.6 µM)
[2]
  MIC: 32 µg/mL (≈ 88.6 µM)
[3]
  MIC: 16 µg/mL (≈ 44.3 µM)
[4]
  MIC: > 128 µg/mL
[5]; 2nd experiment, visual reading
  MIC: 32 µg/mL (≈ 88.6 µM)
[6]
  MIC: 32 µg/mL (≈ 88.6 µM)
[7]; 1st experiment
  MIC: 32 µg/mL (≈ 88.6 µM)
[8]; [25]
  MBC: 16 µg/mL (≈ 44.3 µM)
[8]; [26]
  MBC: 16 µg/mL (≈ 44.3 µM)
[9]
  MIC: 32 µg/mL (≈ 88.6 µM)
[10]; 1st experiment
  MBC: 32 µg/mL (≈ 88.6 µM)
[11]; [27]
  MIC: 16 µg/mL (≈ 44.3 µM)
[11]; [26]
  MIC: 16 µg/mL (≈ 44.3 µM)
[12]
  fold greater activity (fold lower MIC) in presence of polymyxin B compared to without polymyxin B: not significantly affected
[12]; A. baumannii A14, without polymyxin B, 1st experiment, read-out: MIC without PB
  MIC: 32 µg/mL (≈ 88.6 µM)
[12]; A. baumannii A14, without polymyxin B, 2nd experiment, visual reading, read-out: MIC without PB
  MIC: 32 µg/mL (≈ 88.6 µM)
[12]; NCTC13301, A. baumannii NCTC 13301, without polymyxin B, 1st experiment, read-out: MIC without PB
  MIC: 32 µg/mL (≈ 88.6 µM)
[12]; NCTC13301, A. baumannii NCTC 13301, without polymyxin B, 2nd experiment, visual reading, read-out: MIC without PB
  MIC: 32 µg/mL (≈ 88.6 µM)
[12]; [28]
  MIC: 8 to 32 µg/mL (≈ 22.1 to 88.6 µM)
[12]; [29]
  MIC: 4 to 32 µg/mL (≈ 11.1 to 88.6 µM)
[13]
  MIC: 32 µg/mL (≈ 88.6 µM)
[14]
  MIC: 8 µg/mL (≈ 22.1 µM)
[15]; 1st experiment
  MBC: 32 µg/mL (≈ 88.6 µM)
[15]; 2nd experiment
  MBC: 32 µg/mL (≈ 88.6 µM)
[16]; [30]
  MIC: 1 µg/mL (≈ 2.77 µM)
[16]; [31]
  MIC: 1 µg/mL (≈ 2.77 µM)
[16]; ATCC19606, read-out: MIC +0.06 μg/ml PB, read with alamar blue, A. baumannii ATCC 19606, +0.06 μg/ml polymyxin B, 2nd experiment, MIC read with alamar blue
  MIC: 0.5 µg/mL

## Cc1c(-c2ccc(N)c(F)c2)ccn2c(=O)c(C(=O)O)cc(C3CC3)c12 [Compound 1, 8-(3-fluoro-4-amino-phenyl)-1-cyclopropyl-9-methyl-4-oxo-quinolizine-3-carboxylic acid]
[1]; 2nd experiment
  MBC: 16 µg/mL (≈ 45.4 µM)
[1]; 1st experiment
  MBC: 8 µg/mL (≈ 22.7 µM)
[3]
  MIC: 8 µg/mL (≈ 22.7 µM)
[5]; 1st experiment
  MIC: 4 µg/mL (≈ 11.4 µM)
[5]; 2nd experiment, visual reading
  MIC: 16 µg/mL (≈ 45.4 µM)
[6]
  MIC: 16 µg/mL (≈ 45.4 µM)
[7]; 1st experiment
  MIC: 16 µg/mL (≈ 45.4 µM)
[7]; 2nd experiment, visual reading
  MIC: 16 µg/mL (≈ 45.4 µM)
[17]; 2nd experiment
  MBC: 16 µg/mL (≈ 45.4 µM)
[17]; 1st experiment
  MBC: 16 µg/mL (≈ 45.4 µM)
[18]; 1st experiment
  MBC: 4 µg/mL (≈ 11.4 µM)
[18]; 2nd experiment
  MBC: 8 µg/mL (≈ 22.7 µM)
[19]; 2nd experiment
  MBC: 8 µg/mL (≈ 22.7 µM)
[19]; 1st experiment
  MBC: 16 µg/mL (≈ 45.4 µM)
[8]; [25]
  MBC: 32 µg/mL (≈ 90.8 µM)
[8]; [26]
  MBC: 8 µg/mL (≈ 22.7 µM)
[20]; 1st experiment
  MIC: 4 µg/mL (≈ 11.4 µM)
[20]; 2nd experiment, visual reading
  MIC: 8 µg/mL (≈ 22.7 µM)
[21]
  MBC: 8 µg/mL (≈ 22.7 µM)
[10]; 1st experiment
  MBC: 8 µg/mL (≈ 22.7 µM)
[10]; 2nd experiment
  MBC: 16 µg/mL (≈ 45.4 µM)
[11]; [27]
  MIC: 16 µg/mL (≈ 45.4 µM)
[11]; [26]
  MIC: 8 µg/mL (≈ 22.7 µM)
[22]; 1st experiment
  MIC: 8 µg/mL (≈ 22.7 µM)
[22]; 2nd experiment, visual reading
  MIC: 8 µg/mL (≈ 22.7 µM)
[23]; A baumannii A 401, ratio MIC without PB to MIC + PB, PB 0.06 μg/ml, 2nd experiment
  MIC ratio without/with polymyxin B: ≥ 512 µg/mL
[23]; 1st experiment
  MIC: 4 µg/mL (≈ 11.4 µM)
[23]; 2nd experiment, visual reading
  MIC: 16 µg/mL (≈ 45.4 µM)
[12]; [28]
  MIC: 1 to 32 µg/mL (≈ 2.84 to 90.8 µM)
[12]; [29]
  MIC: 4 to 32 µg/mL (≈ 11.4 to 90.8 µM)
[24]
  MIC: 8 µg/mL (≈ 22.7 µM)
[15]; 1st experiment
  MBC: 16 µg/mL (≈ 45.4 µM)
[16]; [30]
  MIC: 0.25 µg/mL (≈ 0.709 µM)
[16]; [31]
  MIC: 0.25 µg/mL (≈ 0.709 µM)
